Assays:
[1] = molecular target: T1, fatty acyl CoA:cholesterol acyl transferase (ACAT) (Rattus norvegicus, UniProt O70536); experiment: Inhibition of fatty acyl CoA:cholesterol acyl transferase (ACAT) in vitro (rat adrenal supernatant, oleoyl CoA-14C); type: biochemical; conditions: final concentration 5.2 μg./ml., 37° C.; for inhibition at 5.2 µg/mL: pH 7.4, rat adrenal supernatant; for % Inhibition (ACAT): rat adrenal supernatant, pH 7.4
T1 construct: Rat adrenals were homogenized in 0.2M monobasic potassium phosphate buffer; from tissue; host or cells: rat adrenals, 1000 x g supernatant of the homogenate containing the microsomal fraction
T1 sequence (O70536 1-545): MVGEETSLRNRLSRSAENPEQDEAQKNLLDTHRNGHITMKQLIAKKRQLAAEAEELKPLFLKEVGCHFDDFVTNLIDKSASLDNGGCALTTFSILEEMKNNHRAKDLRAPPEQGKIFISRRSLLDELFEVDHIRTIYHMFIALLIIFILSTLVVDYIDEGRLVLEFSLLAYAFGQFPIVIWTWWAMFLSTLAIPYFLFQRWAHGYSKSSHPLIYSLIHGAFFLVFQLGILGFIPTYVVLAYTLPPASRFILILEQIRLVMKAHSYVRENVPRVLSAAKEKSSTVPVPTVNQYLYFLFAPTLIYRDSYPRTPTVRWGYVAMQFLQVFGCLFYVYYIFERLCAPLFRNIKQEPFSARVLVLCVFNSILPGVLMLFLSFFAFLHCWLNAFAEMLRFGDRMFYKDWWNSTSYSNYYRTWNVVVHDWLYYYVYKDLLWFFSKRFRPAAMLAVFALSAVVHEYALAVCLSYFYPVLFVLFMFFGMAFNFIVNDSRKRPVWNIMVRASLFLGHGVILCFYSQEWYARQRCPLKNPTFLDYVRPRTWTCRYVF
Procedure: (§1) The compounds of the present invention were assayed for two types of biological activity related to their potential use as antiatherosclerotic agents. Compounds were tested in vitro for their ability to inhibit the enzymes fatty acyl CoA:cholesterol acyl transferase (ACAT) and in vivo for serum hypolipidemic activity as measured by their ability to inhibit lipid absorption in rats. The compounds were tested for their ability to inhibit ACAT according to the following procedure:
Rat adrenals were homogenized in 0.2M monobasic potassium phosphate buffer, pH 7.4, and centrifuged at 1000 times gravity for 15 minutes at 5° C. The supernatant, containing the microsomal fraction, served as the source of the cholesterol-esterifying enzyme, fatty acyl CoA:cholesterol acyl transferase (ACAT). A mixture comprising 50 parts of adrenal supernatant, 10 parts of albumin (BSA) (50 mg./ml.), 3 parts of test compound (final concentration 5.2 μg./ml.) and 500 parts of buffer was preincubated at 37° C. for 10 minutes. After treatment with 20 parts of oleoyl CoA(^14 C-0.4 μCi) the mixture was incubated at 37° C. for 10 minutes. A control mixture, omitting the test compound, was prepared and treated in the same manner. The lipids from the incubation mixture were extracted into an organic solvent and separated by thin-layer chromatography. The cholesteryl ester fraction was counted in a scintillation counter. This procedure is a modification of that described by Hashimoto, et al., Life Scie., 12 (Part II), 1-12 (1973).

[2] = Serum hypolipidemic activity in vivo: lowering of serum cholesterol and triglycerides in rats; design: species or system male rats COBS, CD, SD strain; conditions: oral, 0.1% by weight in diet, 5 days, vs control animals
Procedure: as §1
The compounds were also tested for their ability to lower lipid levels in mammals. The compounds were administered orally admixed with diet (0.1% by weight) to groups of four male rats COBS, CD, SD strain from Charles River Breeding Laboratories, Inc, Wilmington, Mass. A control group of eight rats was maintained on the diet alone; test groups were maintained on the diet plus 0.1% of test compounds by weight. After 5 days treatment, serum cholesterol and triglyceride concentrations were determined by direct enzymatic procedures using a Centrifichem® System 400 autoanalyzer (Union Carbide Co.). Cholesterol concentrations were determined by the combined cholesterol esterase-cholesterol oxidase procedure of Roelschlau et. al., Zeit. Klin. Chem. Lkin. Biochem., 12, 226 (1974). Triglycerides were determined by the combined method of lipase catalyzed hydrolysis of triglycerides to glycerol and free fatty acids [Bucolo, G. and David, H., Clin. Chem. 19, 476 (1973)] and Wahlefeld, A. W., in "Methods of Enzymatic Analysis", Vol. 4, Bergmeyer, H. U., Editor, Academic Press, New York, N.Y. (1974), pp. 1831-1835 and the enzymatic oxidation of the glycerol which leads to the production of colored formazan [Stavropoulos, W. S. and Crouch, R. D., Clin. Chem., 20, No. 7, 857 (1974)]. […] Compounds which produce statistically significant lowering of either sterol or triglycerides are considered to be active.

Structure (SMILES)	inhibition at 5.2 µg/mL [1]	% Lowering of Serum Sterol [2]	% Lowering of Serum Triglycerides [2]	% Inhibition (ACAT) [1]
CCOC(=O)c1ccc(NCCCCCCCCCCCCCC[Si](C)(C)C)cc1 [Ethyl 4-[14-(trimethylsilyl)tetradecylamino]benzoate]	50%	47%	38%	
C[Si](C)(C)CCCNc1ccc(C(=O)O)cc1 [4-[3-(Trimethylsilyl)propylamino]benzoic acid]	12%	18%	53%	
C[Si](C)(C)CCCNc1ccc(C(=O)[O-])cc1.[Na+] [Sodium 4-[3-(trimethylsilyl)propylamino]benzoate]		36%	23%	23%
C[Si](C)(C)CCCCCCCCCCCNc1ccc(C(=O)O)cc1 [4-[11-(Trimethylsilyl)undecylamino]benzoic acid]	57%	56%	75%	
C[Si](C)(C)CCCCCCCCCCCCCCNc1ccc(C(=O)[O-])cc1.[Na+] [Sodium 4-[14-(trimethylsilyl)tetradecylamino]benzoate]		61%	78%	62%
CCOC(=O)c1ccc(NCCC[Si](C)(C)C)cc1 [Ethyl 4-[3-(trimethylsilyl)propylamino]benzoate]	59%	23%	46%	
C[Si](C)(C)CCCCCCCCCCCCCCNc1ccc(C(=O)O)cc1 [4-[14-(Trimethylsilyl)tetradecylamino]benzoic acid]	60%	60%	70%	
C[Si](C)(C)CCCCCCCCCCCNc1ccc(C(=O)[O-])cc1.[Na+] [Sodium 4-[11-(trimethylsilyl)undecylamino]benzoate]		52%	54%	56%
CCOC(=O)c1ccc(NCCCCCCCCCCC[Si](C)(C)C)cc1 [Ethyl 4-[11-(trimethylsilyl)undecylamino]benzoate]	17%	43%	22%	

— US4670421A, “Antiatherosclerotic silanes” (American Cyanamid Company, priority 1982, dated 1987)
